Assay [1] has as its system Klebsiella aerogenes. Put plainly: Minimum inhibitory concentration against Klebsiella aerogenes (Gram-negative) in broth. The class given is functional.
The test system of assay [2] is Bacillus subtilis. The assay is described as follows: Minimum inhibitory concentration against Bacillus subtilis (Gram-positive) was determined by broth dilution method. Type of assay: functional. For orientation: Dilution methods test growth across graded concentrations, often in twofold steps.
Assay [3] deals with Bacillus sp. The assay is described as follows: Minimum inhibitory concentration against Bacillus sphaericus (Gram-positive) was determined by broth dilution method. Type of assay: functional, Lysinibacillus sphaericus. The settings on record: Bacillus sp. (in: firmicutes).
In assay [4] the test system is Staphylococcus aureus. Put plainly: Minimum inhibitory concentration against Staphylococcus aureus (Gram-positive) was determined by broth dilution method. Type of assay: functional.
A short description of assay [5]: Minimum inhibitory concentration against Chromobacterium violaceum (Gram-negative) was determined by broth dilution method. Type of assay: functional.
Assay [6] deals with Bacillus sp. Put plainly: Minimum inhibitory concentration against Bacillus sphaericus (Gram-positive) in broth. The class given is functional, Lysinibacillus sphaericus. The settings on record: Bacillus sp. (in: firmicutes).
For assay [7], the system named is Pseudomonas aeruginosa. Put plainly: Minimum inhibitory concentration against Pseudomonas aeruginosa (Gram-negative) by broth dilution method. The class given is functional.

Structures are written as SMILES. Converted amounts (≈) assume the structure as drawn.

For `Fc1ccc(COc2nc(OCc3ccc(F)cc3)nc(OCc3ccc(F)cc3)n2)cc1`, the MIC is 25 µg/mL (≈ 55.1 µM) in assay [1]; 25 µg/mL (≈ 55.1 µM) in assay [2]; 12.5 µg/mL (≈ 27.6 µM) in assay [3]; 25 µg/mL (≈ 55.1 µM) in assay [4]; 12.5 µg/mL (≈ 27.6 µM) in assay [5].
As to `Clc1ccc(Cc2nc(Cc3ccc(Cl)cc3)nc(Cc3ccc(Cl)cc3)n2)cc1`, the MIC in assay [1], in assay [2], in assay [3], in assay [4] and in assay [5] was 25 µg/mL (≈ 55 µM) in each case.
In the case of `c1ccc(COc2nc(OCc3ccccc3)nc(OCc3ccccc3)n2)cc1`, the MIC in assay [2], in assay [3], in assay [4] and in assay [5] was 25 µg/mL (≈ 62.6 µM) throughout.
Take `Cc1ccc(CNc2nc(NCc3ccc(C)cc3)nc(NCc3ccc(C)cc3)n2)cc1`: the MIC in assay [3] was 50 µg/mL (≈ 114 µM).
Consider `COc1ccc(Cc2nc(Cc3ccc(OC)cc3)nc(Cc3ccc(OC)cc3)n2)cc1`, for which the MIC in assay [1] stood at 25 µg/mL (≈ 56.6 µM); in assay [2], 50 µg/mL (≈ 113 µM); in assay [3], 12.5 µg/mL (≈ 28.3 µM); in assay [4], 25 µg/mL (≈ 56.6 µM); in assay [5], 25 µg/mL (≈ 56.6 µM).
The molecule `Fc1ccc(CNc2nc(NCc3ccc(F)cc3)nc(NCc3ccc(F)cc3)n2)cc1` displayed a minimum inhibitory concentration (MIC) in assay [6] of 50 µg/mL (≈ 111 µM).
With `COc1ccc(CNc2nc(NCc3ccc(OC)cc3)nc(NCc3ccc(OC)cc3)n2)cc1`, the MIC was determined as 25 µg/mL (≈ 51.4 µM) in assay [1]; 25 µg/mL (≈ 51.4 µM) in assay [2]; 12.5 µg/mL (≈ 25.7 µM) in assay [3]; 25 µg/mL (≈ 51.4 µM) in assay [4]; 25 µg/mL (≈ 51.4 µM) in assay [5].
Turning to `CN[C@@H]1[C@H](O[C@H]2[C@H](O[C@H]3[C@H](O)[C@@H](O)[C@H](N=C(N)N)[C@@H](O)[C@@H]3N=C(N)N)O[C@@H](C)[C@]2(O)C=O)O[C@@H](CO)[C@H](O)[C@H]1O` [STREPTOMYCIN], the MIC amounted to 1.56 µg/mL (≈ 2.69 µM) in assay [1]; 6.25 µg/mL (≈ 10.7 µM) in assay [2]; 12.5 µg/mL (≈ 21.5 µM) in assay [3]; 6.25 µg/mL (≈ 10.7 µM) in assay [4]; 3.12 µg/mL (≈ 5.37 µM) in assay [7]; 3.12 µg/mL (≈ 5.37 µM) in assay [5].
As for `Clc1ccc(COc2nc(OCc3ccc(Cl)cc3)nc(OCc3ccc(Cl)cc3)n2)cc1`, the MIC in assay [1] came out at 25 µg/mL (≈ 49.7 µM); in assay [2] it was 12.5 µg/mL (≈ 24.9 µM); in assay [3], 12.5 µg/mL (≈ 24.9 µM); in assay [4] it was 12.5 µg/mL (≈ 24.9 µM); in assay [5], 25 µg/mL (≈ 49.7 µM).
Turning to `c1ccc(CNc2nc(NCc3ccccc3)nc(NCc3ccccc3)n2)cc1`, the MIC in assay [1], in assay [2], in assay [3], in assay [4] and in assay [5] was 25 µg/mL (≈ 63.1 µM) throughout.
For `Clc1ccc(CNc2nc(NCc3ccc(Cl)cc3)nc(NCc3ccc(Cl)cc3)n2)cc1`, the MIC in assay [3] and in assay [5] was 25 µg/mL (≈ 50 µM) each time.
In the case of `COc1ccc(COc2nc(OCc3ccc(OC)cc3)nc(OCc3ccc(OC)cc3)n2)cc1`, the MIC turned out to be 25 µg/mL (≈ 51.1 µM) in assay [1]; 25 µg/mL (≈ 51.1 µM) in assay [2]; 25 µg/mL (≈ 51.1 µM) in assay [3]; 25 µg/mL (≈ 51.1 µM) in assay [4]; 6.25 µg/mL (≈ 12.8 µM) in assay [5].
For the molecule `c1ccc(Cc2nc(Cc3ccccc3)nc(Cc3ccccc3)n2)cc1`, the MIC in assay [1] was 6.25 µg/mL (≈ 17.8 µM); in assay [2], 12.5 µg/mL (≈ 35.6 µM); in assay [3] it was 6.25 µg/mL (≈ 17.8 µM); in assay [4], 12.5 µg/mL (≈ 35.6 µM); in assay [5] it was 6.25 µg/mL (≈ 17.8 µM).
As for `CC1(C)S[C@@H]2[C@H](NC(=O)Cc3ccccc3)C(=O)N2C1C(=O)O` (single isomer, unassigned) [PENICILLIN G], the MIC in assay [1] came out at 6.25 µg/mL (≈ 18.7 µM); in assay [2], 1.56 µg/mL (≈ 4.67 µM); in assay [3], 3.12 µg/mL (≈ 9.35 µM); in assay [4], 1.56 µg/mL (≈ 4.67 µM); in assay [7], 12.5 µg/mL (≈ 37.4 µM); in assay [5], 12.5 µg/mL (≈ 37.4 µM).

Usually MIC stands for the lowest concentration that inhibits growth of the organism. A lower MIC goes with greater potency.

These data come from ChEMBL document CHEMBL1141068, “Synthesis and antibacterial activity of 2,4,6-tri substituted s-triazines” (2005).
